US20220395522A1, “Methods of Use of Glucosamine for Increasing Nitrogen Retention” (TSI Bioproducts (Xuzhou) Co., Ltd., priority 2021, published 2022)

Experiment: Gastrointestinal Symptom Rating Scale (GSRS)
Format: in vivo, human
Details: for Abdom Pain (combined score of GSRS 1, GSRS4, and GSRS5) / Diarrhea (combined score of GSRS11 and GSRS14) / GSRS1 Pain and discomfort in upper abdomen or stomach / GSRS2 Heartburn / GSRS3 Acid reflux / GSRS4 Hunger pangs / GSRS5 Nausea / GSRS6 Stomach rumbling / GSRS7 Stomach bloating / GSRS8 Burping / GSRS9 Passing gas or flatulence / GSRS11 Diarrhea / GSRS14 Urgent need to have a bowel movement / GSRS15 Sensation of not completely emptying the bowels / Ingestion (combined score of GSRS6, GSRS7, GSRS8, and GSRS9) / Reflux (combined score of GSRS2 and GSRS3) / Constipation (combined score of GSRS10, GSRS13, and GSRS14), 'Constipation Syndrome' / GSRS10 Constipation / GSRS13 Hard stools: GLU condition, mean ± SD; for Constipation (combined score of GSRS10, GSRS13, and GSRS14), 'Constipation Syndrome' / GSRS10 Constipation / GSRS13 Hard stools: hydrochloride
Text: The remainder of the study consisted of two identical patterns of testing with the exception of what supplementation protocol was followed. FIG. 1 provides a flowchart of the experimental design. Prior to each visit, food and physical activity logs were completed encompassing four days prior to the scheduled laboratory visit. The four days consisted of two weekend days and two weekdays. Each participant reported to the laboratory for a baseline measurement of height, weight, heart rate, and blood pressure. During this visit, participants completed the Bristol Stool Chart and Gastrointestinal Symptom Rating Scale (GSRS) to assess bowel habits and potential gastrointestinal symptoms. Participants were given instructions on how to collect a stool sample and were instructed to do so within 24 hours of each planned study visit. At the completion of this study visit, participants were provided with their first assigned supplement (either PLA [placebo] or GLU [glucosamine]) and instructed to begin supplementation 21 days prior to their second visit. Participants were instructed to collect their second stool sample on the day of their final supplementation dose. On the morning of their second study visit, participants reported to the laboratory after following identical pre-study instructions as previous visits (i.e., fasting, abstention from caffeine and exercise). Study participants again completed assessments for height, weight, heart rate, blood pressure, and questionnaires regarding their bowel habits and gastrointestinal symptoms while also providing their second stool sample and turning in completed food and activity logs. A washout period lasting a minimum of 14 days and a maximum of 21 days separated each phase of the crossover as shown in FIG. 1. […] In a double-blind manner, a glucosamine supplement (GLU) or a maltodextrin placebo (PLA) was distributed in identical opaque capsules to all participants. On a daily basis, participants were instructed to ingest three capsules, each containing 1,000 mg of glucosamine hydrochloride (GlucosaGreen®, TSI Group Ltd. MT, USA) or a placebo (maltodextrin) identical in appearance for a total of 21 days. Each visit at the beginning of the supplementation regimen (Visits 1 and 4, respectively; See FIG. 1) occurred on or before the first day of supplementation while the final day of supplementation occurred the day before each participant's follow-up visit for that study period (Visits 2 and 4, respectively). Participants were instructed to ingest the supplement 15-30 minutes before breakfast with eight fluid ounces of cold water. In the case of a missed dose, participants were instructed to consume the missed dose as soon as possible with a meal. […] The dose of maltodextrin used in the following examples was two to five-fold lower, respectively, than these investigations. Participants completed electronic (Qualtrics, Inc.) versions of the Bristol Stool Chart and the Gastrointestinal Symptoms Rating Scale (GSRS) at four time points throughout the entire study protocol. The first two questionnaires were completed before and after the first supplementation period while the final two questionnaires were collected before and after the second supplementation period. The Bristol Stool Chart requires participants to classify their bowel movements into one of seven different types of stool. Type 1 was classified as being “Separate hard lumps, like nuts (hard to pass)”, Type 2 being “Sausage-shaped, lumpy, uncomfortable to pass”, Type 3 being “Like a sausage, with cracks on its surface”, Type 4 being “Like a sausage or snake, smooth and soft”, Type 5 being “Soft blobs with clear-cut edges, passes easily”, Type 6 being “Fluffy pieces with ragged edges, a mushy stool”, and Type 7 being “Watery, no solid pieces, entirely liquid”. The Gastrointestinal Symptoms Rating Scale (GSRS), a 15-item clinical rating scale was completed a total of four times to assess symptoms related to gastrointestinal distress during the past week. […]

[1] = Post 21 days, 3 x 1,000 mg/day oral

Cl.N[C@H]1C(O)O[C@H](CO)[C@@H](O)[C@@H]1O (stereo partly shown) [GLU, glucosamine hydrochloride]
Abdom Pain (combined score of GSRS 1, GSRS4, and GSRS5) [1]: 4.18 ± 1.66 | Diarrhea (combined score of GSRS11 and GSRS14) [1]: 3.27 ± 1.56 | GSRS1 Pain and discomfort in upper abdomen or stomach [1]: 1.5 ± 0.7 | GSRS2 Heartburn [1]: 1.2 ± 0.4 | GSRS3 Acid reflux [1]: 1.2 ± 0.4 | GSRS4 Hunger pangs [1]: 1.18 ± 0.4 | GSRS5 Nausea [1]: 1.55 ± 1.21 | GSRS6 Stomach rumbling [1]: 2.2 ± 1.3 | GSRS7 Stomach bloating [1]: 2.1 ± 1.22 | GSRS8 Burping [1]: 1.2 ± 0.4 | GSRS9 Passing gas or flatulence [1]: 2.46 ± 1.21 | GSRS11 Diarrhea [1]: 1.73 ± 1.56 | GSRS14 Urgent need to have a bowel movement [1]: 1.55 ± 0.93 | GSRS15 Sensation of not completely emptying the bowels [1]: 1.09 ± 0.3 | Ingestion (combined score of GSRS6, GSRS7, GSRS8, and GSRS9) [1]: 7.91 ± 2.98 | Reflux (combined score of GSRS2 and GSRS3) [1]: 2.36 ± 0.67 | Constipation (combined score of GSRS10, GSRS13, and GSRS14), 'Constipation Syndrome' [1]: 3.27±0.9 | GSRS10 Constipation [1]: 1.09±0.3 | GSRS13 Hard stools [1]: 1.09±0.3 | Abdom Pain (combined score of GSRS 1, GSRS4, and GSRS5) (Pre (baseline)): 4.27 ± 1.68 | Diarrhea (combined score of GSRS11 and GSRS14) (Pre (baseline)): 2.27 ± 0.9 | GSRS1 Pain and discomfort in upper abdomen or stomach (Pre (baseline)): 1.2 ± 0.4 | GSRS2 Heartburn (Pre (baseline)): 1.1 ± 0.3 | GSRS3 Acid reflux (Pre (baseline)): 1.0 ± 0.0 | GSRS4 Hunger pangs (Pre (baseline)): 1.82 ± 0.98 | GSRS5 Nausea (Pre (baseline)): 1.27 ± 0.9 | GSRS6 Stomach rumbling (Pre (baseline)): 1.5 ± 0.69 | GSRS7 Stomach bloating (Pre (baseline)): 1.9 ± 1.22 | GSRS8 Burping (Pre (baseline)): 1.2 ± 0.4 | GSRS9 Passing gas or flatulence (Pre (baseline)): 1.82 ± 0.75 | GSRS11 Diarrhea (Pre (baseline)): 1.0 ± 0.0 | GSRS14 Urgent need to have a bowel movement (Pre (baseline)): 1.27 ± 0.9 | GSRS15 Sensation of not completely emptying the bowels (Pre (baseline)): 1.73 ± 1.1 | Ingestion (combined score of GSRS6, GSRS7, GSRS8, and GSRS9) (Pre (baseline)): 6.45 ± 2.5 | Reflux (combined score of GSRS2 and GSRS3) (Pre (baseline)): 2.09 ± 0.3 | Constipation (combined score of GSRS10, GSRS13, and GSRS14), 'Constipation Syndrome' (Pre (baseline)): 5.09±3.45 | GSRS10 Constipation (Pre (baseline)): 1.82±1.4 | GSRS13 Hard stools (Pre (baseline)): 1.55±1.04 | Abdom Pain combined score, % (PLA vs. GLU, between-group): 4.2% | Constipation combined score, % (PLA vs. GLU, between-group): −33.3% | Diarrhea combined score, % (PLA vs. GLU, between-group): 30.6% | GSRS1, % (PLA vs. GLU, between-group): 31.3% | GSRS2, % (PLA vs. GLU, between-group): −0.9% | GSRS3, % (PLA vs. GLU, between-group): 20.0% | GSRS4, % (PLA vs. GLU, between-group): −11.3% | GSRS5, % (PLA vs. GLU, between-group): 35.4% | GSRS6, % (PLA vs. GLU, between-group): 37.6% | GSRS7, % (PLA vs. GLU, between-group): −30.7% | GSRS8, % (PLA vs. GLU, between-group): −10% | GSRS9, % (PLA vs. GLU, between-group): 8.8% | GSRS10, % (PLA vs. GLU, between-group): −64.9% | GSRS11, % (PLA vs. GLU, between-group): 55.0% | GSRS13, % (PLA vs. GLU, between-group): −15.5% | GSRS14, % (PLA vs. GLU, between-group): 13.0% | GSRS15, % (PLA vs. GLU, between-group): −23.8% | Ingestion combined score, % (PLA vs. GLU, between-group): −0.4% | Reflux combined score, % (PLA vs. GLU, between-group): 8.4% | Stomach bloating ratings (GSRS7), change from baseline (Post vs Pre, p=0.32): no changes were observed
